Activity calls are given as the source filed them. The calls are words filed in the database; no cut-off is given here.

Assay [1] concerns Rattus norvegicus. The assay is described as follows: Antidiabetic activity in high fat diet-STZ induced diabetic Wistar rat model assessed as appearance of apparent intact segments in kidney at 10 mg/kg, ip pretreated with high fat diet for 4 weeks followed by 8 hrs fasting after STZ administration and measured 4 weeks after compound treatment by hematoxylin and eosin staining based microscopic analysis. Type of assay: functional, organism-based.

Assay [2] has as its system Rattus norvegicus. Put plainly: Antidiabetic activity in high fat diet-STZ induced diabetic Wistar rat model assessed as intact tubular segments in kidney at 20 to 30 mg/kg, ip pretreated with high fat diet for 4 weeks followed by 8 hrs fasting after STZ administration and measured 4 weeks after compound treatment by hematoxylin and eosin staining based microscopic analysis. It is filed as functional, organism-based. Conditions: dose 20-30 mg/kg.

In assay [3] the test system is Rattus norvegicus. The assay is described as follows: Antidiabetic activity in high fat diet-STZ induced diabetic Wistar rat model assessed as reduction in luminal exfoliation of epithelial cells in kidney at 30 mg/kg, ip pretreated with high fat diet for 4 weeks followed by 8 hrs fasting after STZ administration and measured 4 weeks after compound treatment by hematoxylin and eosin staining based microscopic analysis. Type of assay: functional, organism-based.

Assay [4] has as its system Rattus norvegicus. Put plainly: Antidiabetic activity in high fat diet-STZ induced diabetic Wistar rat model assessed as cholesterol level at 30 mg/kg, ip pretreated with high fat diet for 4 weeks followed by 8 hrs fasting after STZ administration and measured 4 weeks after compound treatment (reference value: 10.39 +/- 1.3 mmol/L). Type of assay: functional.
The subject of assay [5] is Rattus norvegicus. Put plainly: Antidiabetic activity in high fat diet-STZ induced diabetic Wistar rat model assessed as reduction in focal necrotic lesions in liver at 20 mg/kg, ip pretreated with high fat diet for 4 weeks followed by 8 hrs fasting after STZ administration and measured 4 weeks after compound treatment by hematoxylin and eosin staining based microscopic analysis. Type of assay: functional, organism-based.

For assay [6], the system named is Rattus norvegicus. The assay is described as follows: Antidiabetic activity in high fat diet-STZ induced diabetic Wistar rat model assessed as protection against periportal mononuclear inflammatory cell infiltration in liver at 10 mg/kg, ip pretreated with high fat diet for 4 weeks followed by 8 hrs fasting after STZ administration and measured 4 weeks after compound treatment by hematoxylin and eosin staining based microscopic analysis. It is filed as functional, organism-based.

Assay [7] deals with Rattus norvegicus. The assay is described as follows: Antidiabetic activity in high fat diet-STZ induced diabetic Wistar rat model assessed as intact hepatocytes by measuring reduction in persistent fatty changes at 20 mg/kg, ip pretreated with high fat diet for 4 weeks followed by 8 hrs fasting after STZ administration and measured 4 weeks after compound treatment by hematoxylin and eosin staining based microscopic analysis. Type of assay: functional, organism-based.

Assay [8] concerns Rattus norvegicus. Put plainly: Antidiabetic activity in high fat diet-STZ induced diabetic Wistar rat model assessed as LDL-cholesterol level at 30 mg/kg, ip pretreated with high fat diet for 4 weeks followed by 8 hrs fasting after STZ administration and measured 4 weeks after compound treatment (reference value: 6.54 +/- 0.918 mmol/L). Type of assay: functional.
For assay [9], the system named is Rattus norvegicus. Put plainly: Antidiabetic activity in high fat diet-STZ induced diabetic Wistar rat model assessed as binucleated cells in liver at 30 mg/kg, ip pretreated with high fat diet for 4 weeks followed by 8 hrs fasting after STZ administration and measured 4 weeks after compound treatment by hematoxylin and eosin staining based microscopic analysis. It is filed as functional, organism-based.

Assay [10] concerns Rattus norvegicus. The assay is described as follows: Antidiabetic activity in high fat diet-STZ induced diabetic Wistar rat model assessed as protection against diffuse hepatocellular microvesicular steatosis at 10 mg/kg, ip pretreated with high fat diet for 4 weeks followed by 8 hrs fasting after STZ administration and measured 4 weeks after compound treatment by hematoxylin and eosin staining based microscopic analysis. Type of assay: functional, organism-based.

The test system of assay [11] is Rattus norvegicus. The assay is described as follows: Antidiabetic activity in high fat diet-STZ induced diabetic Wistar rat model assessed as mean area percentage of LC3B in liver at 30 mg/kg, ip pretreated with high fat diet for 4 weeks followed by 8 hrs fasting after STZ administration and measured after 4 weeks of compound treatment by immunohistochemistry based microscopic analysis (reference value: 0.742 +/- 0.143 %). It is filed as functional.

Assay [12] concerns Rattus norvegicus. The assay is described as follows: Antidiabetic activity in high fat diet-STZ induced diabetic Wistar rat model assessed as insulin level in serum at 30 mg/kg, ip pretreated with high fat diet for 4 weeks followed by 8 hrs fasting after STZ administration and measured 4 weeks after compound treatment by ELISA (reference value: 16.53 +/- 1.14 microU/ml). It is filed as functional. (In general: In an ELISA, binding on a coated surface is turned into a signal by an enzyme label.)

The test system of assay [13] is Rattus norvegicus. The assay is described as follows: Antidiabetic activity in high fat diet-STZ induced diabetic Wistar rat model assessed as urine albumin to creatinine ratio at 20 mg/kg, ip pretreated with high fat diet for 4 weeks followed by 8 hrs fasting after STZ administration and measured 4 weeks after compound treatment (reference value: 87.13 +/- 9.75 mg/g). Type of assay: functional.

The test system of assay [14] is Rattus norvegicus. The assay is described as follows: Antidiabetic activity in high fat diet-STZ induced diabetic Wistar rat model assessed as ALT level at 20 mg/kg, ip pretreated with high fat diet for 4 weeks followed by 8 hrs fasting after STZ administration and measured 4 weeks after compound treatment (reference value: 152.1 +/- 23.64 IU/L). Type of assay: functional.

The test system of assay [15] is Rattus norvegicus. The assay is described as follows: Antidiabetic activity in ip dosed high fat diet-STZ induced diabetic Wistar rat model assessed as reduction of DDX58 mRNA expression in adipose tissue pretreated with high fat diet for 4 weeks followed by 8 hrs fasting after STZ administration and measured 4 weeks after compound treatment by RT-qPCR analysis. It is filed as functional, organism-based. To be noted: dose 10-30 mg/kg. A general note: Quantitative PCR measures a nucleic acid by following its amplification.

In assay [16] the test system is Rattus norvegicus. The assay is described as follows: Antidiabetic activity in high fat diet-STZ induced diabetic Wistar rat model assessed as preserved integrity of tubular epithelium in kidney at 20 to 30 mg/kg, ip pretreated with high fat diet for 4 weeks followed by 8 hrs fasting after STZ administration and measured 4 weeks after compound treatment by hematoxylin and eosin staining based microscopic analysis. It is filed as functional, organism-based. To be noted: dose 20-30 mg/kg.

Assay [17] relates to Rattus norvegicus. The assay is described as follows: Antidiabetic activity in high fat diet-STZ induced diabetic Wistar rat model assessed as glucose level in serum at 30 mg/kg, ip pretreated with high fat diet for 4 weeks followed by 8 hrs fasting after STZ administration and measured 4 weeks after compound treatment (reference value: 527.7 +/- 49.1 mg%). Type of assay: functional.

Assay [18] relates to Rattus norvegicus. The assay is described as follows: Antidiabetic activity in high fat diet-STZ induced diabetic Wistar rat model assessed as HOMA-IR level at 10 mg/kg, ip pretreated with high fat diet for 4 weeks followed by 8 hrs fasting after STZ administration and measured 4 weeks after compound treatment (reference value: 21.51 +/- 2.17). It is filed as functional.
Assay [19] has as its system Rattus norvegicus. The assay is described as follows: Antidiabetic activity in high fat diet-STZ induced diabetic Wistar rat model assessed as mean area percentage of LC3B in liver at 20 mg/kg, ip pretreated with high fat diet for 4 weeks followed by 8 hrs fasting after STZ administration and measured after 4 weeks of compound treatment by immunohistochemistry based microscopic analysis (reference value: 0.742 +/- 0.143 %). Type of assay: functional.

For assay [20], the system named is Rattus norvegicus. Put plainly: Antidiabetic activity in high fat diet-STZ induced diabetic Wistar rat model assessed as reduction in inflammatory infiltrates in kidney at 30 mg/kg, ip pretreated with high fat diet for 4 weeks followed by 8 hrs fasting after STZ administration and measured 4 weeks after compound treatment by hematoxylin and eosin staining based microscopic analysis. It is filed as functional, organism-based.

The test system of assay [21] is Rattus norvegicus. Put plainly: Antidiabetic activity in high fat diet-STZ induced diabetic Wistar rat model assessed as triglyceride level at 30 mg/kg, ip pretreated with high fat diet for 4 weeks followed by 8 hrs fasting after STZ administration and measured 4 weeks after compound treatment (reference value: 17.05 +/- 0.803 mmol/L). Type of assay: functional.

Assay [22] deals with Rattus norvegicus. Put plainly: Antidiabetic activity in high fat diet-STZ induced diabetic Wistar rat model assessed as mean area percentage of TNFalpha in kidney at 20 mg/kg, ip pretreated with high fat diet for 4 weeks followed by 8 hrs fasting after STZ administration and measured after 4 weeks of compound treatment by immunohistochemistry based microscopic analysis (reference value: 24 +/- 1.5 %). It is filed as functional.

Assay [23] has as its system Rattus norvegicus. The assay is described as follows: Antidiabetic activity in high fat diet-STZ induced diabetic Wistar rat model assessed as triglyceride level at 20 mg/kg, ip pretreated with high fat diet for 4 weeks followed by 8 hrs fasting after STZ administration and measured 4 weeks after compound treatment (reference value: 17.05 +/- 0.803 mmol/L). It is filed as functional.

`O[C@@H]1[C@@H](O)[C@H](OC/C=C/c2ccccc2)O[C@H](CO[C@@H]2OC[C@H](O)[C@H](O)[C@H]2O)[C@H]1O`: the result in [1], in assay [6] and in assay [10] was inactive. Besides, the outcome in [2], in assay [3], in assay [5], in assay [7], in assay [9] and in assay [16] was Active. Further, the result in [20] was Active. Besides, the Activity in assay [4] is on record as 3.15 mmol/L; in [8] it was 1.3 mmol/L; in assay [11], 13.3%; in [12], 5.64 uU/ml; in [13], 33.38 mg/g; in [14] it was 42.38 IU/L. Moreover, the Activity entry in assay [15] was “Dose-Dependent Effect”; in [17] it was 123.9 mg%; in assay [18], 7.81; in assay [19] it was 2.35%; in assay [21], 4.03 mmol/L; in [22], 13.17%. Further, in assay [23], the Activity came to 6.46 mmol/L.

(Values after ChEMBL document CHEMBL5532761, “Rosavin improves insulin resistance and alleviates hepatic and kidney damage via modulating the cGAS-STING pathway and autophagy signaling in HFD/STZ-induced T2DM animals” (2024).)
